Data published in article PMC10683482, “Offsetting Low-Affinity Carbohydrate Binding with Covalency to Engage Sugar-Specific Proteins for Tumor-Immune Proximity Induction” (ACS Central Science, 2023).

System: Hek-PSMA cells
Assay: ADCC reporter assay with polyclonal human IgG, column step (Figure 3)
Assay type: cell-based
Settings: 50 μM compound with 230 μM human IgG 72 h, column washing step
Protocol: Next, we investigated the potential ability of rhamnose cARMs and noncovalent ARM analogs to induce immune proximity with cancer targets. […] These compounds were then evaluated for their capacity to activate immune cells against PSMA cancer targets (Hek-PSMA cells) in an ADCC reporter assay (Figure 3). […] The formation of this complex may be prevented by the alkyl linker, which could adopt a fixed conformation via hydrophobic collapse.
Figure 3 ADCC reporter assay to evaluate cARM vs ARM immune function using polyclonal anti-rhamnose antibodies. Top: chemical structures of compounds evaluated. Bottom: ADCC assay. Each cARM/ARM (50 μM) was incubated with polyclonal human IgG (230 μM) for 72 h and passed through a Millipore centrifugation column. Antibody solutions were then resuspended to experimental concentrations and added to preplated Hek-P cells (50,000 cells). To this cell solution, luciferase-expressing jurkat cells were added and incubated for 24 h. Activation of jurkat was determined as a measure of luciferase expression with a BioGlo assay kit.
General Notes and Materials
ELISA - General notes and Materials […]
Plate absorbance was measured at 450 nm using a Tecan Spark Plate Reader. […]
Pre-cast Tris-Glycine Gels (4-20%) were purchased from Fisher Scientific (XP04202BOX). […] Gel fluorescence was imaged using a GE Typhoon imager (Cy2 channel for fluorescein, Cy5 channel for A647). […]

Compound	immune activation (jurkat luciferase)
C[C@@H]1O[C@@H](OCc2cn(CCc3cn(C(=O)OCCNC(=O)CCCCCNC(=O)CCCCCNC(=O)CCCCCNC(=O)NCCCC[C@H](NC(=O)N[C@@H](CCC(=O)O)C(=O)O)C(=O)O)cn3)nn2)[C@H](O)[C@H](O)[C@H]1O [compound 10]	successfully mediated specific immune activation
C[C@@H]1O[C@@H](OCc2cn(CCCNC(=O)OCCNC(=O)CCCCCNC(=O)CCCCCNC(=O)CCCCCNC(=O)NCCCC[C@H](NC(=O)N[C@@H](CCC(=O)O)C(=O)O)C(=O)O)nn2)[C@H](O)[C@H](O)[C@H]1O [compound 11]	failed to induce immune activation
